Holding throughout (assay type): biochemical
The target of assay [1] is T1, human GST-CLK1 (Homo sapiens, UniProt P49759).
T1 construct: purified human GST-CLK1 (129-end, SignalChem) enzyme; purchased SignalChem
As to the kind of experiment: GST-CLK1 enzyme inhibition, ADP-Glo kinase assay. To be noted: ATP 10 μM, GST-CLK1 129-end. The procedure, abridged: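 ADP-Glo luminescence read-out, relative to untreated solvent control, gave IC50 (nM) from triplicate data sets. Reactions ran an hour at 25° C with 3 ng GST-CLK1 (residues 129-end), 10 μM ATP and specific substrate in Tris-HCl pH 7.4 buffer with MgCl2, BSA and DTT.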

Assay [2] concerns the target LRRK2 (G2019S) (Homo sapiens, UniProt Q5S007, G2019S). As to the kind of experiment: LRRK2 G2019S enzyme inhibition, ADP-Glo kinase assay. Also noted: purchased SignalChem L10-12GG. To be noted: ATP 25 μM. The procedure, abridged: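 IC50 derived from luminescent ADP-Glo readout against untreated solvent control, twelve final compound concentrations from 50 μM downward. Reaction: recombinant human LRRK2 G2019S enzyme, 25 μM ATP, substrate, pH 7.4 Tris buffer with MgCl2/BSA/DTT, 25° C. for 2 hours.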

The target in assay [3] is T2, human GST-DYRK1A (Homo sapiens, UniProt Q13627).
T2 construct: purified human GST-DYRK1A (full length, Thermo Scientifics) enzyme; purchased Thermo Scientifics
As to the kind of experiment: GST-DYRK1A enzyme inhibition, ADP-Glo kinase assay. To be noted: ATP 10 μM, GST-DYRK1A full length, read-out: DYRK1 IC50. Summed up:
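Full-length enzyme (10 ng) was incubated with 10 μM ATP and a specific substrate for 1 h at 25 °C in 40 mM Tris-HCl pH 7.4, 20 mM MgCl2, 0.5 mg/mL BSA, 50 μM DTT. Luminescence was read against a solvent control, and IC50 values were derived from 3 data sets.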
(ADP-Glo turns the ADP formed in a reaction into a luminescent signal.)

Assay [4] deals with LRRK2 (Homo sapiens, UniProt Q5S007). As to the kind of experiment: LRRK2 enzyme inhibition, ADP-Glo kinase assay. Also noted: purchased Invitrogen PR8604B. To be noted: ATP 10 μM. The procedure, abridged:
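ADP-Glo luminescent read-out of ADP formed by purified human LRRK2 enzyme (25 ng), 10 μM ATP, 0.2 μg substrate, 25° C for 2 h, Tris-HCl pH 7.4 buffer with MgCl2, BSA, DTT. Inhibition versus untreated solvent control over twelve final concentrations (50 μM downward) gives IC50.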

Broadly, the IC50 is the concentration at which inhibition is half-maximal.

T1 sequence (P49759 129-484 limits assumed): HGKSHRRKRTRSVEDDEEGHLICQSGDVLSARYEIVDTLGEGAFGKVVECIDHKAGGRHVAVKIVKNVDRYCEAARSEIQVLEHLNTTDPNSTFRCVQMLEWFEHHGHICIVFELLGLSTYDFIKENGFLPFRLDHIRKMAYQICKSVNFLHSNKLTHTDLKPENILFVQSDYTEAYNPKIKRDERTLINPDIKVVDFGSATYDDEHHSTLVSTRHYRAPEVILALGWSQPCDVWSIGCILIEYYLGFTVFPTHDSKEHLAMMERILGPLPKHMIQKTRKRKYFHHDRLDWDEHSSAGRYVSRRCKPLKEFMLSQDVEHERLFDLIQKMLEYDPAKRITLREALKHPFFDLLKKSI
Chain of LRRK2 (G2019S) (Q5S007 970-2527 G2019S limits assumed): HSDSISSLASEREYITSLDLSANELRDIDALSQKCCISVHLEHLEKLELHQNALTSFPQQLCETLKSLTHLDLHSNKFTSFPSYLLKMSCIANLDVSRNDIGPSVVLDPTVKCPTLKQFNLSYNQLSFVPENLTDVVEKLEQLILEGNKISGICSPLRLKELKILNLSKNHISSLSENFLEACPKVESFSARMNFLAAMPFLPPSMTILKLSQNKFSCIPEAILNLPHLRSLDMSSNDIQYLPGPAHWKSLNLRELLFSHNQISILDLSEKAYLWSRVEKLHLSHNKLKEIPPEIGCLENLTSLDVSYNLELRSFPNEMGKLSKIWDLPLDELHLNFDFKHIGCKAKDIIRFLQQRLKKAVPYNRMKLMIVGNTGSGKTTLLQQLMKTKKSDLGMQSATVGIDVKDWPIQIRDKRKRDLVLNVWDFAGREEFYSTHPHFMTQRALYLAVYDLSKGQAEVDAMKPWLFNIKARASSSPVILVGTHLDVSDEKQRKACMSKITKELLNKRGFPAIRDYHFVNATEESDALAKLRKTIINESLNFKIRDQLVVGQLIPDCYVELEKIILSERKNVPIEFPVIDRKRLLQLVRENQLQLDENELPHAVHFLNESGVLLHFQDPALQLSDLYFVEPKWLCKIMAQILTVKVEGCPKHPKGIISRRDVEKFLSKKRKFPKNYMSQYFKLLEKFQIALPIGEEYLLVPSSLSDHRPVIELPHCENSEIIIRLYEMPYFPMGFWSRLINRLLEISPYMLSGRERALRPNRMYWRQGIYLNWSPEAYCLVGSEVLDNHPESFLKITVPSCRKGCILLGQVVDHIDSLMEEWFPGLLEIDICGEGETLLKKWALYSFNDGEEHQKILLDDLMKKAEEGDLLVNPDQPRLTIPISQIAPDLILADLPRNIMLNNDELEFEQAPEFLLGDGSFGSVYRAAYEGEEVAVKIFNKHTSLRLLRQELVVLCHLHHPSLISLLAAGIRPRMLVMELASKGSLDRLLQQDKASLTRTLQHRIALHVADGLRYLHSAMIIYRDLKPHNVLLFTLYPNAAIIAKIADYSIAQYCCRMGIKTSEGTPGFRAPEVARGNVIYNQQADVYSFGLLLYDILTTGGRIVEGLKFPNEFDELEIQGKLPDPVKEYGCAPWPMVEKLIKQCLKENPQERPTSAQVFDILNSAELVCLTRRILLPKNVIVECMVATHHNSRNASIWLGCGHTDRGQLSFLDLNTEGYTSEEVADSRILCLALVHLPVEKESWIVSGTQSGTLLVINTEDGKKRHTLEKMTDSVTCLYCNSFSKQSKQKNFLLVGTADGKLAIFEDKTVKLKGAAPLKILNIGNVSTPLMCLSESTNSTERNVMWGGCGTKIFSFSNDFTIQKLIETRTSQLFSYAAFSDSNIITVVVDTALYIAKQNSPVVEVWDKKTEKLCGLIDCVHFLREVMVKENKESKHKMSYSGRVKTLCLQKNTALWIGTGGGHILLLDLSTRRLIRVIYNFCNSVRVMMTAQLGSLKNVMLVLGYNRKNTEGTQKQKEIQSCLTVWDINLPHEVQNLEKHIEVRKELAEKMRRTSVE
Chain of LRRK2 (Q5S007 970-2527 limits assumed): as the sequence (Q5S007 970-2527 G2019S limits assumed) above, with S1050G counted along it

As to `COc1cc(S(=O)(=O)N2CCC(N3CCOCC3)CC2)ccc1Nc1nc(NCC(C)C)c2c(C(F)(F)F)c[nH]c2n1` [Example 179, N^4-isobutyl-N^2-(2-methoxy-4-((4-morpholinopiperidin-1-yl)sulfonyl)phenyl)-5-(trifluoromethyl)-7H-pyrrolo[2,3-d]pyrimidine-2,4-diamine], the half-inhibitory concentration (IC50) in assay [1] is 301 to 1000 nM; in assay [2], 101 to 300 nM; in assay [3] it was 301 to 1000 nM; in assay [4] it was < 100 nM.
For `CCCNc1nc(Nc2ccc(S(C)(=O)=O)cc2OC)nc2[nH]cc(C(F)(F)F)c12` [Example 181, N^2-(2-methoxy-4-(methylsulfonyl)phenyl)-N^4-propyl-5-(trifluoromethyl)-7H-pyrrolo[2,3-d]pyrimidine-2,4-diamine], the IC50 in assay [1] lay in the range of 301 to 1000 nM; in assay [2], 101 to 300 nM; in assay [3], 301 to 1000 nM; in assay [4] it was 101 to 300 nM.
Regarding `O=C(c1ccc(Nc2nc(NC3CC3)c3c(C(F)(F)F)c[nH]c3n2)c2c1OCCO2)N1CCOCC1` [Example 182, (8-((4-(cyclopropylamino)-5-(trifluoromethyl)-7H-pyrrolo[2,3-d]pyrimidin-2-yl)amino)-2,3-dihydrobenzo[b][1,4]dioxin-5-yl)(morpholino)methanone], the IC50 was 301 to 1000 nM in assay [1], < 100 nM in assay [2], 301 to 1000 nM in assay [3] and < 100 nM in assay [4].
Regarding `COc1cc(S(C)(=O)=O)ccc1Nc1nc(NC2CCC2)c2c(C(F)(F)F)c[nH]c2n1` [Example 184, N^4-cyclobutyl-N^2-(2-methoxy-4-(methylsulfonyl)phenyl)-5-(trifluoromethyl)-7H-pyrrolo[2,3-d]pyrimidine-2,4-diamine], the IC50 was 101 to 300 nM in assay [1], 101 to 300 nM in assay [2], 301 to 1000 nM in assay [3] and < 100 nM in assay [4].
As for `O=C(c1ccc(Nc2nc(NC3CCC3)c3c(C(F)(F)F)c[nH]c3n2)c2c1OCCO2)N1CCOCC1` [Example 185, (8-((4-(cyclobutylamino)-5-(trifluoromethyl)-7H-pyrrolo[2,3-d]pyrimidin-2-yl)amino)-2,3-dihydrobenzo[b][1,4]dioxin-5-yl)(morpholino)methanone], the IC50 in assay [1] is 101 to 300 nM; in assay [2] it was 101 to 300 nM; in assay [3] it was 301 to 1000 nM; in assay [4], < 100 nM.
Consider `COCCNc1nc(Nc2ccc(C(=O)N3CCOCC3)c3c2OCCO3)nc2[nH]cc(C(N)=O)c12` [Example 235, 4-((2-methoxyethyl)amino)-2-((8-(morpholine-4-carbonyl)-2,3-dihydrobenzo[b][1,4]dioxin-5-yl)amino)-7H-pyrrolo[2,3-d]pyrimidine-5-carboxamide], for which the IC50 in assay [1], in assay [2], in assay [3] and in assay [4] was 301 to 1000 nM in each case.
Regarding `C=CCNc1nc(Nc2ccc(S(=O)(=O)N3CCOCC3)cc2OC)nc2[nH]ccc12` [Example 246, N4-allyl-N2-(2-methoxy-4-(morpholinosulfonyl)phenyl)-7H-pyrrolo[2,3-d]pyrimidine-2,4-diamine], the half-maximal inhibitory concentration (IC50) in assay [1] was 301 to 1000 nM; in assay [2], < 100 nM; in assay [3] it was 301 to 1000 nM; in assay [4] it was < 100 nM.
As to `C=CCNc1nc(Nc2ccc(S(=O)(=O)N3CCC(N4CCOCC4)CC3)cc2OC)nc2[nH]ccc12` [Example 247, N4-allyl-N2-(2-methoxy-4-((4-morpholinopiperidin-1-yl)sulfonyl)phenyl)-7H-pyrrolo[2,3-d]pyrimidine-2,4-diamine], the concentration for half-maximal inhibition (IC50) in assay [1] is 301 to 1000 nM; in assay [2], < 100 nM; in assay [3], 301 to 1000 nM; in assay [4], < 100 nM.
Turning to `N#Cc1c[nH]c2nc(Nc3ccc(C(=O)N4CCC(N5CCOCC5)CC4)c4c3OCCO4)nc(NC3CCCCC3)c12` [Example 251, 4-(cyclohexylamino)-2-((8-(4-morpholinopiperidine-1-carbonyl)-2,3-dihydrobenzo[b][1,4]dioxin-5-yl)amino)-7H-pyrrolo[2,3-d]pyrimidine-5-carbonitrile], the half-inhibitory concentration (IC50) in assay [1] is 301 to 1000 nM; in assay [2], < 100 nM; in assay [3], 301 to 1000 nM; in assay [4] it was < 100 nM.
For `CNc1nc(Nc2ccc(S(C)(=O)=O)cc2OC)nc2[nH]cc(C#N)c12` [Example 257, 2-((2-methoxy-4-(methylsulfonyl)phenyl)amino)-4-(methylamino)-7H-pyrrolo[2,3-d]pyrimidine-5-carbonitrile], the IC50 is 301 to 1000 nM in assay [1], < 100 nM in assay [2], 301 to 1000 nM in assay [3] and < 100 nM in assay [4].
On to `N#Cc1c[nH]c2nc(Nc3ccc(C(=O)N4CCC(N5CCOCC5)CC4)c4c3OCCO4)nc(NC3CCC3)c12` [Example 259, 4-(cyclobutylamino)-2-((8-(4-morpholinopiperidine-1-carbonyl)-2,3-dihydrobenzo[b][1,4]dioxin-5-yl)amino)-7H-pyrrolo[2,3-d]pyrimidine-5-carbonitrile], for which the IC50 in assay [1] was < 100 nM; in assay [2], < 100 nM; in assay [3], 101 to 300 nM; in assay [4] it was < 100 nM.
As to `CCNc1nc(Nc2ccc(C(=O)N3CCC(N4CCOCC4)CC3)c3c2OCCO3)nc2[nH]cc(C(F)(F)F)c12` [Example 363, (8-((4-(ethylamino)-5-(trifluoromethyl)-7H-pyrrolo[2,3-d]pyrimidin-2-yl)amino)-2,3-dihydro-benzo[b][1,4]dioxin-5-yl)(4-morpholino-piperidin-1-yl)methanone], the IC50 in assay [1] is < 100 nM; in assay [2], < 100 nM; in assay [3], 101 to 300 nM; in assay [4], < 100 nM.
For `CCCNc1nc(Nc2ccc(C(=O)N3CCC(N4CCOCC4)CC3)c3c2OCCO3)nc2[nH]cc(C(F)(F)F)c12` [Example 364, (4-morpholino-piperidin-1-yl)(8-((4-(propylamino)-5-(trifluoromethyl)-7H-pyrrolo[2,3-d]pyrimidin-2-yl)amino)-2,3-dihydrobenzo[b] [1,4]dioxin-5-yl)methanone], the IC50 in assay [1], in assay [2], in assay [3] and in assay [4] was < 100 nM throughout.
For the molecule `O=C(c1ccc(Nc2nc(NC3CC3)c3c(C(F)(F)F)c[nH]c3n2)c2c1OCCO2)N1CCC(N2CCOCC2)CC1` [Example 367, (8-((4-(cyclopropyl-amino)-5-(trifluoromethyl)-7H-pyrrolo[2,3-d]pyrimidin-2-yl)amino)-2,3-dihydrobenzo[b] [1,4]dioxin-5-yl)(4-morpho-linopiperidin-1-yl)methanone], the IC50 in assay [1] was < 100 nM; in assay [2], < 100 nM; in assay [3], 101 to 300 nM; in assay [4], < 100 nM.
In the case of `COc1cc(S(C)(=O)=O)ccc1Nc1nc(NC2CC2)c2c(C(F)(F)F)c[nH]c2n1` [Example 376, N^4-cyclopropyl-N^2-(2-methoxy-4-(methylsulfonyl)phenyl)-5-(trifluoromethyl)-7H-pyrrolo[2,3-d]pyrimidine-2,4-diamine], the IC50 in assay [1] is 101 to 300 nM; in assay [2], < 100 nM; in assay [3], 301 to 1000 nM; in assay [4], < 100 nM.

These data come from patent US20230066011A1, “PYRROLOPYRIMIDINE DERIVATIVE, AND PHARMACEUTICAL COMPOSITION FOR PREVENTING OR TREATING PROTEIN KINASE-RELATED DISEASE COMPRISING SAME AS ACTIVE INGREDIENT” (VORONOI CO., LTD., priority 2019, published 2023).
